Measured values from paper PMC9683047, “Design, synthesis and biological evaluation of 4-aminoquinoline derivatives as receptor-interacting protein kinase 2 (RIPK2) inhibitors” (Journal of Enzyme Inhibition and Medicinal Chemistry, 2022).

How the values were obtained:
RIPK2 [1] = biological target: T1, RIPK2 (Homo sapiens, UniProt O43353); assay: Lipophilic ligand efficiency (LipE); settings: LipE = pIC50 − ClogP
T1 construct: purchased Promega

RIPK2 [2] = biological target: T1, RIPK2; assay: RIPK2 kinase inhibition assay (ADP-Glo); assay type: biochemical; settings: mean ± SD from two separate experiments
Description: RIPK2 kinase activity was analysed using the ADP-Glo™ Assay Kit (RIPK2 Kinase Enzyme System, Promega, USA). Reactions were performed according to the instructions. Specific signal was calculated by subtracting values in the wells without protein and inhibitor from the values in the test wells.

RIPK1 = biological target: T2, RIPK1 (Homo sapiens, UniProt Q13546); assay: RIPK1 inhibition rate at 1 µM; assay type: biochemical
T2 sequence (Q13546 1-671): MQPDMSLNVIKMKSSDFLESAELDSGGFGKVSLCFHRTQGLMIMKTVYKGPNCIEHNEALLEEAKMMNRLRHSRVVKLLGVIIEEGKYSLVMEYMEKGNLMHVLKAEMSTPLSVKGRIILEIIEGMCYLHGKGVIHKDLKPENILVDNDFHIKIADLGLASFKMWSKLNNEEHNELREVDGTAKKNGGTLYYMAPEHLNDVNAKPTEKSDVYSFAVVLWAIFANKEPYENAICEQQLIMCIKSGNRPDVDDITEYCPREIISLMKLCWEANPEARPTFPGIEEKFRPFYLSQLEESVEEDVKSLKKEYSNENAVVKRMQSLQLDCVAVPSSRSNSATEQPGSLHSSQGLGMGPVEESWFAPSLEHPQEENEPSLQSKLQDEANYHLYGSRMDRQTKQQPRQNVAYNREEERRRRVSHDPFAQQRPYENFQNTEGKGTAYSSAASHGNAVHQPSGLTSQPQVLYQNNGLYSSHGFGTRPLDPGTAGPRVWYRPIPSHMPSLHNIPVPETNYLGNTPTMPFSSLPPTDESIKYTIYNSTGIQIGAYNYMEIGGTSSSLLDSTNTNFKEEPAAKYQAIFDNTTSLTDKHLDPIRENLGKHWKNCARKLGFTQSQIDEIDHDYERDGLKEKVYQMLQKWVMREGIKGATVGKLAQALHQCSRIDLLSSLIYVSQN
Description: Table 4. Selectivity, ClogP and LipE of compound 14, 15, 21, 32, 36. | column: RIPK1 IR@1µM (%)

T1 sequence (O43353 whole entry): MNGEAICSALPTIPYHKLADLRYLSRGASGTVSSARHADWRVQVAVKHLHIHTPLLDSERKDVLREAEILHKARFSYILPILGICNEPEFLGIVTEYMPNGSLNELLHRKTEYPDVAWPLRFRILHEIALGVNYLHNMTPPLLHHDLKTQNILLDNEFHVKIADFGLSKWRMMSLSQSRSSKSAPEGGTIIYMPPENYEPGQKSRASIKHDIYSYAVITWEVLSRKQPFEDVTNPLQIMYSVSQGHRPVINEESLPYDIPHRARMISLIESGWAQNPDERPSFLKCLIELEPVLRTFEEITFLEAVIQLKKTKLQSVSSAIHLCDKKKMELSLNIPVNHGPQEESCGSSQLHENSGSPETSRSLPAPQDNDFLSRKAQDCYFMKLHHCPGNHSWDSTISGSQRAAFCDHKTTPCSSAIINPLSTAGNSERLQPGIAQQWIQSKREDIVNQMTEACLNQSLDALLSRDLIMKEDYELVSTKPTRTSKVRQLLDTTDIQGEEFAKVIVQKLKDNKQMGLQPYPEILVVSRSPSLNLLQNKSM

| RIPK2 IC50 (RIPK2 [2]) | SMILES | LipE (RIPK2 [1]) | IC50 (RIPK2 [2]) | RIPK1 IR@1µM (%) (RIPK1) |
| --- | --- | --- | --- | --- |
| – | Brc1ccc2nccc(Nc3ccccc3)c2c1 [Compound 1, 6-Bromo-N-phenylquinolin-4-amine] | 2.57 | 0.243 ± 0.0148 µM | – |
| – | COc1cccc(Nc2ccnc3ccc(Br)cc23)c1 [Compound 2, 6-Bromo-N-(3-methoxyphenyl)quinolin-4-amine] | 3.10 | 0.0548 ± 0.0034 µM | – |
| loss of the activity | CC(C)Oc1cccc(Nc2ccnc3ccc(Br)cc23)c1 [Compound 3, 6-Bromo-N-(3-isopropoxyphenyl)quinolin-4-amine] | – | > 1 µM | – |
| – | CC(=O)c1cccc(Nc2ccnc3ccc(Br)cc23)c1 [Compound 4, 1–(3-((6-Bromoquinolin-4-yl)amino)phenyl)ethan-1-one] | 3.50 | 0.0925 ± 0.0221 µM | – |
| – | Fc1cc(Nc2ccnc3ccc(Br)cc23)ccc1Cl [Compound 5, 6-Bromo-N-(4-chloro-3-fluorophenyl)quinolin-4-amine] | 2.78 | 0.0314 ± 0.0062 µM | – |
| – | COc1cc(Nc2ccnc3ccc(Br)cc23)cc(OC)c1OC [Compound 6, 6-Bromo-N-(3,4,5-trimethoxyphenyl)quinolin-4-amine] | 3.63 | 0.0107 ± 0.0001 µM | – |
| – | Brc1ccc2nccc(Nc3ccccn3)c2c1 [Compound 7, 6-Bromo-N-(pyridin-2-yl)quinolin-4-amine] | – | > 1 µM | – |
| – | Brc1ccc2nccc(Nc3cccnc3)c2c1 [Compound 8, 6-Bromo-N-(pyridin-3-yl)quinolin-4-amine] | 3.68 | 0.151 ± 0.0301 µM | – |
| – | Brc1ccc2nccc(Nc3ccncc3)c2c1 [Compound 9, 6-Bromo-N-(pyridin-4-yl)quinolin-4-amine] | 3.24 | 0.421 ± 0.106 µM | – |
| – | Brc1ccc2nccc(Nc3ccc4scnc4c3)c2c1 [Compound 10, N-(6-bromoquinolin-4-yl)benzo[d]thiazol-5-amine] | 3.97 | 0.0122 ± 0.0025 µM | – |
| – | Brc1ccc2nccc(Nc3ccc4ncsc4c3)c2c1 [Compound 11, N-(6-bromoquinolin-4-yl)benzo[d]thiazol-6-amine] | 3.21 | 0.0823 ± 0.0122 µM | – |
| – | Brc1ccc2nccc(Nc3ccc4cn[nH]c4c3)c2c1 [Compound 12, 6-Bromo-N-(1H-indazol-6-yl)quinolin-4-amine] | 3.49 | 0.0222 ± 0.0052 µM | – |
| – | Brc1ccc2nccc(Nc3ccc4[nH]ccc4c3)c2c1 [Compound 13, 6-Bromo-N-(1H-indol-5-yl)quinolin-4-amine] | 2.82 | 0.118 ± 0.0215 µM | – |
| – | c1ccc(-c2ccc3nccc(Nc4ccc5scnc5c4)c3c2)nc1 [Compound 16, N-(6-(pyridin-2-yl)quinolin-4-yl)benzo[d]thiazol-5-amine] | 4.11 | 0.0036 ± 0.0014 µM | – |
| – | c1ncc(-c2ccc3nccc(Nc4ccc5scnc5c4)c3c2)cn1 [Compound 17, N-(6-(pyrimidin-5-yl)quinolin-4-yl)benzo[d]thiazol-5-amine] | 2.80 | 0.0015 ± 0.0003 µM | – |
| – | c1ccc(-c2ccc3nccc(Nc4ccc5scnc5c4)c3c2)cc1 [Compound 18, N-(6-phenylquinolin-4-yl)benzo[d]thiazol-5-amine] | 5.81 | 0.024 ± 0.0116 µM | – |
| – | Cn1cc(-c2ccc3nccc(Nc4ccc5scnc5c4)c3c2)cn1 [Compound 19, N-(6–(1-methyl-1H-pyrazol-4-yl)quinolin-4-yl)benzo[d]thiazol-5-amine] | 3.08 | 0.0164 ± 0.0016 µM | – |
| – | c1cc(Nc2ccc3scnc3c2)c2cc(-c3cn[nH]c3)ccc2n1 [Compound 20, N-(6-(1H-pyrazol-4-yl)quinolin-4-yl)benzo[d]thiazol-5-amine] | 3.04 | 0.0082 ± 0.0016 µM | – |

| RIPK2 IC50 (RIPK2 [2]) | SMILES | LipE (RIPK2 [1]) | IC50 (RIPK2 [2]) | RIPK1 IR@1µM (%) (RIPK1) |
| --- | --- | --- | --- | --- |
| – | Cc1n[nH]cc1-c1ccc2nccc(Nc3ccc4scnc4c3)c2c1 [Compound 21, N-(6–(3-methyl-1H-pyrazol-4-yl)quinolin-4-yl)benzo[d]thiazol-5-amine] | 4.99 | 0.0041 ± 0.0009 µM | <1% |
| – | Cc1cnn(C)c1-c1ccc2nccc(Nc3ccc4scnc4c3)c2c1 [Compound 22, N-(6–(1,4-dimethyl-1H-pyrazol-5-yl)quinolin-4-yl)benzo[d]thiazol-5-amine] | 3.86 | 0.019 ± 0.0067 µM | – |
| – | Cc1nn(C)cc1-c1ccc2nccc(Nc3ccc4scnc4c3)c2c1 [Compound 23, N-(6–(1,3-dimethyl-1H-pyrazol-4-yl)quinolin-4-yl)benzo[d]thiazol-5-amine] | 2.92 | 0.0095 ± 0.0037 µM | – |
| – | Cc1cscc1-c1ccc2nccc(Nc3ccc4scnc4c3)c2c1 [Compound 24, N-(6–(4-methylthiophen-3-yl)quinolin-4-yl)benzo[d]thiazol-5-amine] | 2.37 | 0.0196 ± 0.012 µM | – |
| – | c1cc(Nc2ccc3scnc3c2)c2cc(-c3ccc4[nH]ccc4c3)ccc2n1 [Compound 25, N-(6-(1H-indol-5-yl)quinolin-4-yl)benzo[d]thiazol-5-amine] | 3.87 | 0.0111 ± 0.0036 µM | – |
| – | c1cc(-c2ccc3nccc(Nc4ccc5scnc5c4)c3c2)c2cc[nH]c2c1 [Compound 26, N-(6-(1H-indol-4-yl)quinolin-4-yl)benzo[d]thiazol-5-amine] | 5.00 | 0.0094 ± 0.0011 µM | – |
| – | c1cc(-c2ccc3nccc(Nc4ccc5scnc5c4)c3c2)c2cn[nH]c2c1 [Compound 27, N-(6-(1H-indazol-4-yl)quinolin-4-yl)benzo[d]thiazol-5-amine] | – | 0.0037 ± 0.0004 µM | – |
| – | c1cc(Nc2ccc3scnc3c2)c2cc(-c3ccnc4[nH]ccc34)ccc2n1 [Compound 28, N-(6-(1H-pyrrolo[2,3-b]pyridin-4-yl)quinolin-4-yl)benzo[d]thiazol-5-amine] | 3.46 | 0.0073 ± 0.0035 µM | – |
| – | c1ccc2c(-c3ccc4nccc(Nc5ccc6scnc6c5)c4c3)cncc2c1 [Compound 29, N-(6-(isoquinolin-4-yl)quinolin-4-yl)benzo[d]thiazol-5-amine] | 3.81 | 0.0172 ± 0.0023 µM | – |
| – | c1ccc2ncc(-c3ccc4nccc(Nc5ccc6scnc6c5)c4c3)cc2c1 [Compound 30, N-([3,6'-biquinolin]-4'-yl)benzo[d]thiazol-5-amine] | 2.80 | 0.0417 ± 0.019 µM | – |
| – | COc1cc(Nc2ccnc3ccc(-c4ccncc4)cc23)cc(OC)c1OC [Compound 31, 6-(Pyridin-4-yl)-N-(3,4,5-trimethoxyphenyl)quinolin-4-amine] | 3.87 | 0.0081 ± 0.0039 µM | – |
| – | COc1cc(Nc2ccnc3ccc(-c4cccnc4)cc23)cc(OC)c1OC [Compound 32, 6-(Pyridin-3-yl)-N-(3,4,5-trimethoxyphenyl)quinolin-4-amine] | 4.30 | 0.0024 ± 0.0002 µM | 19% |
| – | COc1cc(Nc2ccnc3ccc(-c4ccccn4)cc23)cc(OC)c1OC [Compound 33, 6-(Pyridin-2-yl)-N-(3,4,5-trimethoxyphenyl)quinolin-4-amine] | 3.26 | 0.0124 ± 0.0089 µM | – |
| – | COc1cc(Nc2ccnc3ccc(-c4cncnc4)cc23)cc(OC)c1OC [Compound 34, 6-(Pyrimidin-5-yl)-N-(3,4,5-trimethoxyphenyl)quinolin-4-amine] | 4.58 | 0.011 ± 0.0017 µM | – |
| – | COc1cc(Nc2ccnc3ccc(-c4cccc5[nH]ncc45)cc23)cc(OC)c1OC [Compound 35, 6–(1 h-indazol-4-yl)-N-(3,4,5-trimethoxyphenyl)quinolin-4-amine] | 3.24 | 0.0071 ± 0.0047 µM | – |
| – | COc1cc(Nc2ccnc3ccc(-c4cnn(C)c4)cc23)cc(OC)c1OC [Compound 36, 6–(1-Methyl-1H-pyrazol-4-yl)-N-(3,4,5-trimethoxyphenyl)quinolin-4-amine] | 3.67 | 0.0072 ± 0.0026 µM | <1% |
| – | COc1cc(Nc2ccnc3ccc(-c4cn[nH]c4)cc23)cc(OC)c1OC [Compound 37, 6–(1 h-pyrazol-4-yl)-N-(3,4,5-trimethoxyphenyl)quinolin-4-amine] | 4.22 | 0.0145 ± 0.0056 µM | – |
| – | COc1cc(Nc2ccnc3ccc(-c4c[nH]nc4C)cc23)cc(OC)c1OC [Compound 38, 6–(3-Methyl-1H-pyrazol-4-yl)-N-(3,4,5-trimethoxyphenyl)quinolin-4-amine] | 3.79 | 0.0192 ± 0.0007 µM | – |
